Article PMC8170916, “Sublingual AKBA Exerts Antidepressant Effects in the Aβ-Treated Mouse Model” (Biomolecules, 2021)

Key:
[1] = Cerebral AKBA quantification by GC-MS/IT after sublingual or intranasal administration; assay type: in vivo, mice; details: 5 mg/kg
Experimental: AKBA (Cayman Chemical Company) was dissolved in sunflower oil, this vehicle was chosen in order to maintain a better tasting and higher density of the final solution thus reducing reflux through the digestive tract. […] Ten µL of the solution (or vehicle alone) was sublingually administered to mice. For intranasal administration, requiring more hydrophilic solution, AKBA was dissolved in DMSO and saline (1:3, v/v), and given to mice at the same final dose of 5 mg/kg. Cerebral AKBA was quantified in a separate subset of mice at 5, 15 and 30 min after its administration, either sublingually or intranasally.
After administration, whole brains were put in 1 mL of a solution of chloroform/methanol (1:1 v/v), sonicated and then homogenates were centrifuged at 4 °C for 20 min (10,000 rpm). The pellets were then removed, and the remaining supernatants were dried on sodium sulphate anhydrous, filtered with 0.20 µm PTFE syringe filters and used for chemical analysis. The quantification of 3-O-acetyl-11-keto-β-boswellic acid (AKBA) was performed by using GC-MS/IT equipment composed of a gas chromatograph GC-7890B (Agilent Technologies, Santa Clara, CA, USA) coupled with an ion trap mass spectrometer IT-240 (Agilent Technologies).
The gas chromatograph was equipped with a VF-5 ms (Agilent J&W GC Columns) capillary column, 30 m × 0.25 mm i.d. × 0.25 µm. The column oven was set at 50 °C for 1 min after injection; then the temperature was increased from 50 °C to 300 °C with a ramp of 5 °C/min and a hold time of 10 min. The purge process was performed at the end of each run, increasing the oven temperature from 300 °C to 325 °C at 10 °C/min and a hold time of 1.5 min. The total time for each run was approximately 65 min. The injection volume was 2 µL (splitless) with a continuous flow rate of 1 mL/min of ultra-high purity helium (BIP®) and an injector temperature of 250 °C.
The MS electron multiplier voltage was set at 1450 V, and an ionization time of 65,000 µs was used, running in the electron impact (EI) mode. The transfer line, ion trap and manifold temperatures were set at 270 °C, 180 °C and 70 °C, respectively. The mass spectrometer firstly operated in full scan mode (50–700 m/z) with the ionizing voltage at 70 eV. […] Peaks at m/z 408 and m/z 393 were identified as M-AcOH-CO2 and M-AcOH-CO2-CH3. The peak at m/z 273 was identified as fragment A, resulting from retro-Diels–Alder fragmentation, while the peak at m/z 232 was identified as fragment B, generated from McLafferty fragmentation. These characteristic fragments were selected as a mass target to develop the MS acquisition method operating in single ion scan mode (SIS) to improve the LOD and LOQ for AKBA quantification. […]

mice = test: Open field test (locomotion); assay type: in vivo; details: 30 min after AKBA or vehicle administration
Experimental: Mice were placed in an open field arena and allowed to explore for 30 min [25]. After each trial, the arena floor was cleaned with 70% ethanol to avoid inter-assay bias. The movements of mice were video recorded and analyzed by ANY-maze tracking software (Ugo Basile-Varese, Gemonio, Italy). Locomotion was evaluated through total crossing measurements.

noradrenaline (NA) = test: Noradrenaline quantification in PFC and HIPP by HPLC with electrochemical detection; assay type: in vivo; details: mice 7 days after icv Aβ 4 µM, sublingual AKBA 5 mg/kg 30 min earlier
Experimental: (§1) All behavioral experiments were conducted at 5 or 30 min after sublingual administrations of AKBA or vehicle in either SHAM or Aβ-treated mice. Based upon behavioral outcomes observed, neurochemical and biochemical quantifications were performed 30 min after AKBA or vehicle administration in either SHAM or Aβ-treated mice.
(§2) Anesthetized animals were sacrificed by cervical dislocation. Brains were immediately removed and kept on ice for dissection of PFC and HIPP, according to the atlas of Paxinos and Franklin. Tissues were frozen and stored at −80 °C until analyses were carried out. Samples (PFC and HIPP) were homogenized (1:10 w/v) at 4 °C using a PBS buffer containing a 1:100 protease and phosphatase inhibitor cocktail (HALT inhibitors, Thermo Fisher Scientific, Cleveland, OH, USA) for biochemical analyses or perchloric acid 0.1 M for neurochemical analyses. Homogenates were centrifuged at 13,000× g at 4 °C for 20 min, and supernatants were used for further determinations.
5-HT, noradrenaline (NA), and KYN levels were measured in the PFC and HIPP of mice by HPLC coupled with an electrochemical detector (Ultimate ECD, Thermo Scientific Dionex, Milan, Italy) as already reported. Separation was performed by a LC18 reverse phase column (Kinetex, 150 mm × 3.0 mm, ODS 5 μm; Phenomenex, Castel Maggiore-Bologna, Italy). The detection was accomplished by a thin layer amperometric cell (Thermo Scientific Dionex, Milan, Italy) with a 5 mm diameter glassy carbon electrode at a working potential of 400 mV (5-HT and NA) or 0.750 mV (KYN) vs. Pd. The mobile phase consisted of an aqueous buffer containing 75 mM NaH2PO4, 1.7 mM octane sulfonic acid, 0.3 mM EDTA, and acetonitrile 10%, buffered at pH 3.0. […] GLU concentrations were determined by HPLC coupled with fluorescence detection (emission length 460 nm; excitation length 340 nm), as previously published. […] Results were analyzed by Borwin software (version 1.50; Jasco, Cremella, Italy) and the amino acid concentration was expressed as µM. All data were normalized for total area weight and were expressed as concentration/mg of tissue.

5-HT = 5-HT quantification in PFC and HIPP by HPLC with electrochemical detection; assay type: in vivo; details: mice 7 days after icv Aβ 4 µM, sublingual AKBA 5 mg/kg 30 min earlier
Experimental: as §1, §2
5-HT, noradrenaline (NA), and KYN levels were measured in the PFC and HIPP of mice by HPLC coupled with an electrochemical detector (Ultimate ECD, Thermo Scientific Dionex, Milan, Italy) as already reported. Separation was performed by a LC18 reverse phase column (Kinetex, 150 mm × 3.0 mm, ODS 5 μm; Phenomenex, Castel Maggiore-Bologna, Italy). The detection was accomplished by a thin layer amperometric cell (Thermo Scientific Dionex, Milan, Italy) with a 5 mm diameter glassy carbon electrode at a working potential of 400 mV (5-HT and NA) or 0.750 mV (KYN) vs. Pd. The mobile phase consisted of an aqueous buffer containing 75 mM NaH2PO4, 1.7 mM octane sulfonic acid, 0.3 mM EDTA, and acetonitrile 10%, buffered at pH 3.0. The flow rate was kept at 0.7 mL·min-1 by an isocratic pump (Shimadzu LC-10 AD, Kyoto, Japan). Data acquisition and integration were performed by using Chromeleon software (version 6.80, Thermo Scientific Dionex, Milan, Italy). GLU concentrations were determined by HPLC coupled with fluorescence detection (emission length 460 nm; excitation length 340 nm), as previously published. Analyses were carried out using an LC18 reverse phase column (Kinetex, 150 mm × 3.0 mm, ODS 5 μm; Phenomenex, Castel Maggiore, Bologna, Italy) and detection was accomplished by pre-column derivatization with ophthalaldehyde/mercaptopropionic acid. The mobile phase consisted of a 50 mM sodium acetate buffer, at pH 6.95, with gradient methanol increasing linearly from 2 to 30% (v/v) over a 40 min run. […] Results were analyzed by Borwin software (version 1.50; Jasco, Cremella, Italy) and the amino acid concentration was expressed as µM. All data were normalized for total area weight and were expressed as concentration/mg of tissue.

Caco-2 cells = test system: Caco-2 cells; set-up: method as in PMID 19010411; details: in vitro model to simulate human intestinal absorption; cited from earlier work
[2] = set-up: method as in PMID 21553931; details: cited from earlier work

Compound: CC(=O)O[C@@H]1CC[C@@]2(C)[C@@H](CC[C@]3(C)[C@@H]2C(=O)C=C2[C@@H]4[C@@H](C)[C@H](C)CC[C@]4(C)CC[C@]23C)[C@@]1(C)C(=O)O [AKBA, 3-O-acetyl-11-keto-β-boswellic acid]
- Cerebral AUCs, sublingual vs intranasal ([1]; same dose by both routes): sublingual route of administration was characterized by higher bioavailability
- Crossing of the blood brain barrier ([1]; sublingual or intranasal): rapidly crossed the blood brain barrier
- Time of highest cerebral AKBA concentrations after administration ([1]; sublingual or intranasal, sampled at 5, 15, 30 min): 5 min
- Cerebral AKBA levels (whole brain) ([1]; sublingual vs intranasal, 5, 15 and 30 min after administration): significantly higher after sublingual administration compared to intranasal
- Locomotion in the open field test (mice): no difference
- NA levels in the HIPP (noradrenaline (NA); HIPP): further increase compared to SHAM mice
- NA levels in the PFC (noradrenaline (NA); PFC): significantly increased NA levels
- 5-HT levels in the HIPP (5-HT; HIPP): no differences among experimental groups
- 5-HT levels in the PFC (5-HT; PFC): no effect
- Permeability in Caco-2 cells (Caco-2 cells): low permeability
- Oral bioavailability [2]: low oral bioavailability
